# Patent publication US20090117593A1, “T. Cruzi-derived neurotrophic agents and methods of use therefor” (Tufts University, priority 2006, published 2009)
# “Also recorded” adds a separate entry of the source.
# How the values were obtained:
# IL-6 [1] = assay: IL-6 secretion by PBMC (ELISA); format: cell-based, human; conditions: 24 hours
# Experimental: (§1) Primary cultures of human intestinal microvascular endothelial cells (HIMEC) isolated from normal jejunal mucosa/submucosal tissue were prepared as described (Strong et al., Gastroenterology 114:1244-1256 (1998)). The HIMEC were cultured in fibronectin-coated plasticware in MCDB medium (Sigma) supplemented with 20% FBS, 90 μg/ml heparin and 50 μg/ml endothelial cell growth factor (Sigma). T-24 cells (ATCC Accession No. HTB-4) were cultured in M199 medium supplemented with 10% FBS. PBMC were purified by Ficoll-Paque gradient as described (Current Protocols in Immunology, pp 7.1.1-7.1.2). Vero cells (ATCC Accession No. CCL-81) were grown in RPMI medium with 5% Nu serum and infected with the Silvio X-10/4 of T. cruzi as described previously (Chuenkova et al., J. Exp. Med. 181:1693-1703 (1995)).
# Endothelial cells and T-24 cells were plated on 24-well plates at a density of 1×10^3 cells/well, while peripheral blood mononuclear cells (PBMC) were plated in the similar wells at 1×10^6/well. Triplicat cultures of cells were incubated test agents for a predetermined amount of time. […] Cytokines and chemokines released in the culture supernatants were measured by ELISA assay following the instructions of the manufacturer (Endogen). The cytokines tested were IL-1β, IL-4, IL-8, […], IL-12, IFN-γ, TNF-α, and the chemokines RANTES and MCP-1. Negative controls were cells incubated in medium containing polymixin B at 10 μg/ml, and positive controls were cells incubated with bacterial LPS at the low ng/ml range (for PBMC or HIMEC) or in the μg/ml range for carcinoma T-24 cells. In some experiments, IL-1β or TNFα were used as positive control for cytokine release.
# TR peptides (Table 2) were synthesized at the Tufts Synthesis Facility (Boston, Mass.). Each peptide was purified by HPLC, and the number of amino acids and molecular weight of each peptide verified by mass spectrometry. Peptides were dissolved in growth medium (10% FCS in RPMI) and added at various concentrations to 1×10^6 PBMC/well in 24-well plates. After 24 hours, IL-6 was assayed by ELISA in the conditioned supernatants.
# [2] = tested on: PC12 cells or Schwann cells; assay: Inhibition of apoptosis of PC12 cells or Schwann cells by synthetic peptides; format: cell-based
# PC12 cells [3] = format: cell-based; conditions: serum-free RPMI/0.2% BSA, collagen coated dishes, 16-17 hours
# PC12 cells [4] = assay: Protection of PC12 cells from apoptosis induced by trophic factor withdrawal (DAPI, TUNEL); format: cell-based; conditions: serum-free RPMI-1640/0.2% BSA, 17 hours, DAPI or TUNEL
# Text: PC12 cells were obtained from ATCC (Manassas, Va. (Accession No. CRL-1721)) and cultured on collagen-coated dishes in RPMI 1640 supplemented with 10% horse serum and 5% fetal bovine serum (Greene, L., and Tishler, A., Proc. Natl. Acad. Sci. USA, 73:2424-2428 (1976)). For differentiation and survival experiments, cells were washed three times in serum-free RPMI/0.2% BSA, plated in the same medium in collagen-coated plastic dishes at 2×10^5/ml, without and with growth factors, TS, recombinant proteins, synthetic peptides, for the time and concentrations indicated in the Figures.
# Cell staining with 4,6-diamino-2-phenylindole (DAPI). Cells were fixed with 4% formaldehyde in PBS for 5 minutes, washed with PBS, stained with 10 μg/ml DAPI (Sigma) for 2 minutes, washed with PBS, and visualized under UV light using a fluorescent microscope. About 300-400 cells were examined under the microscope to determine the percentage of apoptotic cells.
# Cell DNA nick end labeling (TUNEL) (Gavrieli, Y. et al., J. Cell. Biol., 119:493-501 (1992)) assay was performed using a kit purchased from Boehringer Mannheim as described by the manufacturer.
# Protection against apoptosis of PC12 cells in serum-free medium containing a test agent (agent N) (e.g., protection induced by TS, TS fragments, NGF or other growth factors), was calculated by the formula: 100%−[(apoptosis(%) of cells kept in RPMI containing test agent N÷apoptosis (%) of cells kept in RPMI)×100%]. Testing the effect of Wortmannin (Sigma) and LY294002 (Sigma) in inhibiting the neuroprotection of TS was performed following the protocol described by others (Yao, R., and Cooper, G., Science, 267:2003-2006 (1995); D'Mello, et al., J. Neurosci., 17:1548-1560 (1997)). In brief, PC12 cells were switched from growth medium to RPMI without and with TS or various other growth factors. After 24 hours, Wortmannin and LY294002 were added to the cultures. After another 24 hours, cells were examined for apoptosis by the DAPI assay, as above.
# IL-6 [5] = assay: IL-6 secretion by normal human neutrophils; format: cell-based
# IL-6 [6] = assay: IL-6 secretion by HIMEC (ELISA); format: cell-based, human; conditions: 24 hours
# Experimental: as §1
# Endothelial cells and T-24 cells were plated on 24-well plates at a density of 1×10^3 cells/well, while peripheral blood mononuclear cells (PBMC) were plated in the similar wells at 1×10^6/well. Triplicat cultures of cells were incubated test agents for a predetermined amount of time. […] Cytokines and chemokines released in the culture supernatants were measured by ELISA assay following the instructions of the manufacturer (Endogen). The cytokines tested were IL-1β, IL-4, IL-8, IL-1, IL-12, IFN-γ, TNF-α, and the chemokines RANTES and MCP-1. […]
# Erk1/2 = Erk1/2 phosphorylation in PC12 cells; format: cell-based; conditions: 5 minutes; control peptides 10 μM
# Experimental: Activation state of TrkA, Erk1/2 and Akt kinases and transcription factor CREB was analyzed by assessing phosphorylation by Western blot with appropriate phospho-specific antibodies. For this, cells were plated in complete medium at a density of 3×10^5 cells/ml overnight on 6-well plates (BECTON DICKINSON LABWARE, Franklin Lakes, N.J.). The medium was changed to serum-free medium and the cells cultured for an additional 24 hours to reduce background phosphorylation. […] Antibody reaction was visualized by horseradish peroxidase (HRP)-conjugated secondary antibody and enhanced chemiluminescence kit (ECL). Some blots were stripped in appropriate buffer (50 mM Tris HCl, pH 7.8, 2% SDS, 1% β-mercaptoethanol) at 50° C. for 60 minutes and re-probed with p42/44MAPK, Akt or CREB antibody to ensure equal loading of proteins. For immunoprecipitation experiments, cell lysates were pre-adsorbed on protein G-Sepharose for 1 hour at 4° C. and after brief centrifugation supernatants were incubated with anti-TrkA antibody for 24 hours at 4° C. with gentle rocking. Formed immunocomplexes were captured on protein G-Sepharose, eluted with SDS-PAGE sample buffer and analyzed by immunoblotting with antibody against phospho-TrkA receptor.
# PC12^TrkA cells = assay: Survival of PC12^TrkA cells in serum-free medium (MTT, DAPI); format: cell-based; conditions: peptides 10 μM, PDNF 500 ng/ml, NGF 30 ng/ml, 48 hours to 5 days
# Experimental: PC12^nnr5 and PC12^TrkA cells were grown in RPMI with 10% FCS and 5% horse serum as described earlier (Green et al., J. Cell Biol. 102:830-843 (1986); Chuenkova and Pereira, Mol. Biol. Cell 11: 1487-1498 (2000)). Two approaches were used to study neurite extension: 1) Plating cells (1×10^5 cells/ml) on plastic wells (LABTECH 16-well slides, Nalge Nunc International, Naperville, Ill.) coated with synthetic peptides (100 μg/ml water, 4° C., overnight) or rat tail collagen (1 mg/ml PBS, 4° C., overnight). 2) Adding peptides in solution to cells plated on uncoated substratum. Cells were grown in 1% FCS-containing RPMI for 72 hours, and reacted with 0.5 mg/ml MTT (3-[4,5-dimethylthiazol-2-yl]-2,5-diphenyltetrazolium bromide) (SIGMA, St. Louis, Mo.) in serum-free medium for 1 hour at 37° C. Light microscopy was used to visualize viable cells (i.e., containing reduced insoluble formazan) with or without extended neurites (>5 μm in length). Cell viability was also determined using the CELLTITER 96 assay (Promega, Madison, Wis.) as follows: Cells, plated at 2×10^5/ml, were treated with peptides in serum-free medium for different times and exposed to CELLTITER 96 Aqueous One Solution for 1 hour at 37° C. 2) Apoptotic cells were identified by staining with DAPI (250 ng/ml) (SIGMA) 48 hours after cells were exposed to serum-free medium with or without additives in solution, as described earlier (Chuenkova and Pereira, Mol. Biol. Cell 11:1487-1498 (2000)). […]
# [7] = tested on: primary cultures of rat Schwann cells; conditions: cited from earlier work
substance,measurement,setting,value
DSSAHGAPSTPA [peptide TR1],IL-6 secretion by PBMC,IL-6 [1],less active
DSSAHGAPSTPADSSAHGTPSTPV [TR2],IL-6 secretion by PBMC,IL-6 [1],less active
DSSAHGAPSTPADSSAHGTPSTPVDSSAHGTPSTPA [TR3],IL-6 secretion by PBMC,IL-6 [1],less active
DSSAHGAPSTPADSSAHGTPSTPVDSSAHGTPSTPADSSAHSTPSTPA [TR4],IL-6 secretion by PBMC,IL-6 [1],active in promoting IL-6 release
DSSAHGAPSTPADSSAHGTPSTPVDSSAHGTPSTPADSSAHSTPSTPADSSAHSTPSTPA [TR5],IL-6 secretion by PBMC,IL-6 [1],active in promoting IL-6 release
GNASQNYWEDAYRC [CYN2],effect of PI-3 kinase inhibitor LY294002 on the apoptosis suppressing effect of the peptide,[2],inhibited by the PI-3 kinase inhibitor LY294002
same,suppression of apoptosis of PC12 cells or Schwann cells,[2],suppressed apoptosis but was less active
QPLRRQRVVVVPLSPRLVLLAFCRQRLPLKRMGGSYRCVNASTAN [peptide C44],neurite outgrowth in PC12 cells,PC12 cells [3],had direct neurotrophic activity; also recorded: induce dose dependent outgrowth of neurites
same,protection of PC12 cells from apoptosis induced by trophic factor withdrawal,PC12 cells [4],protected PC12 cells from apoptosis
same,effect of PI-3 kinase inhibitor LY294002 on the apoptosis suppressing effect of the peptide,[2],inhibited by the PI-3 kinase inhibitor LY294002
same,suppression of apoptosis of PC12 cells or Schwann cells,[2],potent suppressors of apoptosis
RQRLPKRMGGSYRC [peptide C14],neurite outgrowth in PC12 cells,PC12 cells [3],had direct neurotrophic activity; also recorded: induce dose dependent outgrowth of neurites
same,protection of PC12 cells from apoptosis induced by trophic factor withdrawal,PC12 cells [4],protected PC12 cells from apoptosis
same,effect of PI-3 kinase inhibitor LY294002 on the apoptosis suppressing effect of the peptide,[2],inhibited by the PI-3 kinase inhibitor LY294002
same,suppression of apoptosis of PC12 cells or Schwann cells,[2],potent suppressors of apoptosis
RQRLPKRMGGSYRCVNASTAH [CFN1],neurite outgrowth in PC12 cells,PC12 cells [3],had direct neurotrophic activity
same,effect of PI-3 kinase inhibitor LY294002 on the apoptosis suppressing effect of the peptide,[2],inhibited by the PI-3 kinase inhibitor LY294002
same,suppression of apoptosis of PC12 cells or Schwann cells,[2],potent suppressors of apoptosis
TNF-α,IL-6 production by normal human neutrophils,IL-6 [5],did elicit secretion of IL-6
VCNA: neuraminidase from Vibrio cholera [reference compound],neurite outgrowth in PC12 cells,PC12 cells [3],did not induce neurite outgrowth; also recorded: does not induce neurite outgrowth
same,protection of PC12 cells from apoptosis induced by trophic factor withdrawal,PC12 cells [4],did not
same,IL-6 secretion by HIMEC,IL-6 [6],did not stimulate detectable IL-6 secretion
VNASTAN [peptide CYFN],Erk1/2 phosphorylation in PC12 cells,Erk1/2,did not activate Erk
same,effect of PI-3 kinase inhibitor LY294002 on the apoptosis suppressing effect of the peptide,[2],inhibited by the PI-3 kinase inhibitor LY294002
same,suppression of apoptosis of PC12 cells or Schwann cells,[2],did not inhibit apoptosis
same,survival of PC12^TrkA cells in serum-free medium,PC12^TrkA cells,did not significantly promoted cell survival
YSVDDGETWE [peptide B2],neurite outgrowth in PC12 cells,PC12 cells [3],did not induce neurite outgrowth; also recorded: did not promote neurite outgrowth
same,suppression of apoptosis of PC12 cells or Schwann cells,[2],did not inhibit apoptosis
same,survival of PC12^TrkA cells in serum-free medium,PC12^TrkA cells; listed as BR,inactive; also recorded: did not significantly promoted cell survival
lysophosphatidic acid,dose reported to be active as Schwann cell survival factor,[7],≥ 10 nM
